Values quoted from earlier work, collected in publication PMC6315591 (Marine Drugs, 2018).

Tested on: muscle nAChR on BC3H-1 cells

α-conotoxin MI
greater affinity at the α/δ versus α/γ interface: 10,000 fold
